From patent US12084467B2, “Therapeutic compounds for HIV virus infection” (Gilead Sciences, Inc., priority 2021, dated 2024)
≈ marks a conversion by molar mass, not a printed value.

What was measured:
[1] = Kinetic solubility analysis (CLND: total chemiluminescent nitrogen determination); details: 1.0% DMSO, 24-hour incubation at ambient temperature, maximum theoretical concentration 100 μM; for pH 2 solubility: 0.1N HCl; for pH 7 solubility: 1×PBS buffer (pH 7.4)
[2] = Solubility in simulated intestinal fluids (FaSSIF / FeSSIF); details: 25 °C, thermodynamic from solid
[3] = fasted state simulated intestinal fluid (FaSSIF), fassif
[4] = fed state simulated intestinal fluid (FeSSIF), fessif

Row | Compound | pH 2 solubility [1] | pH 7 solubility [1] | solubility [2, 3] | solubility [2, 4] | solubility ([2]; fassif)
1 | CC(C)(C#Cc1ccc(-c2ccc(Cl)c3c(N(C(=O)[C@@H]4C[C@H](C(=O)O)C[C@H](C(=O)O)C4)S(C)(=O)=O)nn(CC(F)(F)F)c23)c([C@H](Cc2cc(F)cc(F)c2)NC(=O)Cn2nc(C(F)(F)F)c3c2C(F)(F)[C@@H]2C[C@H]32)n1)S(C)(=O)=O [Compound 15, (1R,3S,5r)-5-((4-chloro-7-(2-((S)-1-(2-((3bS,4aR)-5,5-difluoro-3-(trifluoromethyl)-3b,4,4a,5-tetrahydro-1H-cyclopropa[3,4]cyclopenta[1,2-c]pyrazol-1-yl)acetamido)-2-(3,5-difluorophenyl)ethyl)-6-(3-methyl-3-(methylsulfonyl)but-1-yn-1-yl)pyridin-3-yl)-1-(2,2,2-trifluoroethyl)-1H-indazol-3-yl)(methylsulfonyl)carbamoyl)cyclohexane-1,3-dicarboxylic acid] | 1/1 μM | 1/1 μM | 253 µg/mL (≈ 217 µM) | 38 µg/mL (≈ 32.6 µM) | –
2 | CC(C)(C#Cc1ccc(-c2ccc(Cl)c3c(N(C(=O)N4CCC[C@H]4COP(=O)(O)O)S(C)(=O)=O)nn(CC(F)(F)F)c23)c([C@H](Cc2cc(F)cc(F)c2)NC(=O)Cn2nc(C(F)(F)F)c3c2C(F)(F)[C@@H]2C[C@H]32)n1)S(C)(=O)=O [Compound 29, ((S)-1-((4-chloro-7-(2-((S)-1-(2-((3bS,4aR)-5,5-difluoro-3-(trifluoromethyl)-3b,4,4a,5-tetrahydro-1H-cyclopropa[3,4]cyclopenta[1,2-c]pyrazol-1-yl)acetamido)-2-(3,5-difluorophenyl)ethyl)-6-(3-methyl-3-(methylsulfonyl)but-1-yn-1-yl)pyridin-3-yl)-1-(2,2,2-trifluoroethyl)-1H-indazol-3-yl)(methylsulfonyl)carbamoyl)pyrrolidin-2-yl)methyl dihydrogen phosphate] | 1 μM | 98 μM | 802 µg/mL | 536 µg/mL | –
3 | CC(C)(C#Cc1ccc(-c2ccc(Cl)c3c(N(C(=O)[C@H]4C[C@H](NC(=N)N)C4)S(C)(=O)=O)nn(CC(F)(F)F)c23)c([C@H](Cc2cc(F)cc(F)c2)NC(=O)Cn2nc(C(F)(F)F)c3c2C(F)(F)[C@@H]2C[C@H]32)n1)S(C)(=O)=O [Compound 9, trans-N-(4-chloro-7-(2-((S)-1-(2-((3bS,4aR)-5,5-difluoro-3-(trifluoromethyl)-3b,4,4a,5-tetrahydro-1H-cyclopropa[3,4]cyclopenta[1,2-c]pyrazol-1-yl)acetamido)-2-(3,5-difluorophenyl)ethyl)-6-(3-methyl-3-(methylsulfonyl)but-1-yn-1-yl)pyridin-3-yl)-1-(2,2,2-trifluoroethyl)-1H-indazol-3-yl)-3-guanidino-N-(methylsulfonyl)cyclobutane-1-carboxamide] | 9 μM | 2 μM | 17 µg/mL (≈ 15.4 µM) | 83 µg/mL (≈ 74.9 µM) | –
4 | CC(C)(C#Cc1ccc(-c2ccc(Cl)c3c(N(C(=O)C4(C(=O)O)CC4)S(C)(=O)=O)nn(CC(F)(F)F)c23)c([C@H](Cc2cc(F)cc(F)c2)NC(=O)Cn2nc(C(F)(F)F)c3c2C(F)(F)[C@@H]2C[C@H]32)n1)S(C)(=O)=O [Compound 18, 1-((4-chloro-7-(2-((S)-1-(2-((3bS,4aR)-5,5-difluoro-3-(trifluoromethyl)-3b,4,4a,5-tetrahydro-1H-cyclopropa[3,4]cyclopenta[1,2-c]pyrazol-1-yl)acetamido)-2-(3,5-difluorophenyl)ethyl)-6-(3-methyl-3-(methylsulfonyl)but-1-yn-1-yl)pyridin-3-yl)-1-(2,2,2-trifluoroethyl)-1H-indazol-3-yl)(methylsulfonyl)carbamoyl)cyclopropane-1-carboxylic acid] | 1 μM | 8 μM | 42 µg/mL (≈ 38.9 µM) | 21 µg/mL (≈ 19.4 µM) | –
5 | CC(C)(C#Cc1ccc(-c2ccc(Cl)c3c(N(C(=O)N4CC(C(=O)O)C4)S(C)(=O)=O)nn(CC(F)(F)F)c23)c([C@H](Cc2cc(F)cc(F)c2)NC(=O)Cn2nc(C(F)(F)F)c3c2C(F)(F)[C@@H]2C[C@H]32)n1)S(C)(=O)=O [Compound 24, 1-((4-chloro-7-(2-((S)-1-(2-((3bS,4aR)-5,5-difluoro-3-(trifluoromethyl)-3b,4,4a,5-tetrahydro-1H-cyclopropa[3,4]cyclopenta[1,2-c]pyrazol-1-yl)acetamido)-2-(3,5-difluorophenyl)ethyl)-6-(3-methyl-3-(methylsulfonyl)but-1-yn-1-yl)pyridin-3-yl)-1-(2,2,2-trifluoroethyl)-1H-indazol-3-yl)(methylsulfonyl)carbamoyl)azetidine-3-carboxylic acid] | 1 μM | 100 μM | 75 µg/mL (≈ 68.5 µM) | 21 µg/mL (≈ 19.2 µM) | –
6 | CC(C)(C#Cc1ccc(-c2ccc(Cl)c3c(N(C(=O)N4CCC[C@H]4CN(CC(=O)O)C(=O)OCOP(=O)(O)O)S(C)(=O)=O)nn(CC(F)(F)F)c23)c([C@H](Cc2cc(F)cc(F)c2)NC(=O)Cn2nc(C(F)(F)F)c3c2C(F)(F)[C@@H]2C[C@H]32)n1)S(C)(=O)=O [Compound 33, N—(((S)-1-((4-chloro-7-(2-((S)-1-(2-((3bS,4aR)-5,5-difluoro-3-(trifluoromethyl)-3b,4,4a,5-tetrahydro-1H-cyclopropa[3,4]cyclopenta[1,2-c]pyrazol-1-yl)acetamido)-2-(3,5-difluorophenyl)ethyl)-6-(3-methyl-3-(methylsulfonyl)but-1-yn-1-yl)pyridin-3-yl)-1-(2,2,2-trifluoroethyl)-1H-indazol-3-yl)(methylsulfonyl)carbamoyl)pyrrolidin-2-yl)methyl)-N-(((phosphonooxy)methoxy)carbonyl)glycine] | 1 μM | 100 μM | – | – | 5020 µg/mL (≈ 3840 µM)
7 | CC(C)(C#Cc1ccc(-c2ccc(Cl)c3c(N(C(=O)[C@@H]4C[C@H]4C(=O)O)S(C)(=O)=O)nn(CC(F)(F)F)c23)c([C@H](Cc2cc(F)cc(F)c2)NC(=O)Cn2nc(C(F)(F)F)c3c2C(F)(F)[C@@H]2C[C@H]32)n1)S(C)(=O)=O [Compound 16, (1R,2R)-2-((4-chloro-7-(2-((S)-1-(2-((3bS,4aR)-5,5-difluoro-3-(trifluoromethyl)-3b,4,4a,5-tetrahydro-1H-cyclopropa[3,4]cyclopenta[1,2-c]pyrazol-1-yl)acetamido)-2-(3,5-difluorophenyl)ethyl)-6-(3-methyl-3-(methylsulfonyl)but-1-yn-1-yl)pyridin-3-yl)-1-(2,2,2-trifluoroethyl)-1H-indazol-3-yl)(methylsulfonyl)carbamoyl)cyclopropane-1-carboxylic acid] | 1 μM | 44 μM | 21 µg/mL (≈ 19.4 µM) | 6 µg/mL (≈ 5.55 µM) | –
8 | CC(C)(C#Cc1ccc(-c2ccc(Cl)c3c(N(C(=O)N4CCOC[C@@H]4CN(CC(=O)O)C(=O)OCOP(=O)(O)O)S(C)(=O)=O)nn(CC(F)(F)F)c23)c([C@H](Cc2cc(F)cc(F)c2)NC(=O)Cn2nc(C(F)(F)F)c3c2C(F)(F)[C@@H]2C[C@H]32)n1)S(C)(=O)=O [Compound 37, N—(((S)-4-((4-chloro-7-(2-((S)-1-(2-((3bS,4aR)-5,5-difluoro-3-(trifluoromethyl)-3b,4,4a,5-tetrahydro-1H-cyclopropa[3,4]cyclopenta[1,2-c]pyrazol-1-yl)acetamido)-2-(3,5-difluorophenyl)ethyl)-6-(3-methyl-3-(methylsulfonyl)but-1-yn-1-yl)pyridin-3-yl)-1-(2,2,2-trifluoroethyl)-1H-indazol-3-yl)(methylsulfonyl)carbamoyl)morpholin-3-yl)methyl)-N-(((phosphonooxy)methoxy)carbonyl)glycine] | 2 μM | 100 μM | 6200 µg/mL (≈ 4690 µM) | > 8370 µg/mL | –
9 | CC(C)(C#Cc1ccc(-c2ccc(Cl)c3c(N(C(=O)N4CC[C@@H]4CN(CC(=O)O)C(=O)OCOP(=O)(O)O)S(C)(=O)=O)nn(CC(F)(F)F)c23)c([C@H](Cc2cc(F)cc(F)c2)NC(=O)Cn2nc(C(F)(F)F)c3c2C(F)(F)[C@@H]2C[C@H]32)n1)S(C)(=O)=O [Compound 36, N—(((R)-1-((4-chloro-7-(2-((S)-1-(2-((3bS,4aR)-5,5-difluoro-3-(trifluoromethyl)-3b,4,4a,5-tetrahydro-1H-cyclopropa[3,4]cyclopenta[1,2-c]pyrazol-1-yl)acetamido)-2-(3,5-difluorophenyl)ethyl)-6-(3-methyl-3-(methylsulfonyl)but-1-yn-1-yl)pyridin-3-yl)-1-(2,2,2-trifluoroethyl)-1H-indazol-3-yl)(methylsulfonyl)carbamoyl)azetidin-2-yl)methyl)-N-(((phosphonooxy)methoxy)carbonyl)glycine] | 1 μM | 100 μM | > 7400 µg/mL | > 5930 µg/mL | –
